pIC50: −log10 of the molar value. Converted amounts (≈) assume the structure as drawn. The source made the active and inactive calls. The rule behind the calls is not given here.
What was measured:
Micrococcus luteus = assay: Antibacterial activity against Micrococcus luteus after 3 days by broth microdilution method; format: functional; details: 72 h
NCI-H460 = assay: Cytotoxicity against human NCI-H460 cells after 3 days by sulforhodamine B assay; format: functional, cell-based; details: for pIC50: NCI-H460, 72 h
MCF7 = assay: Cytotoxicity against human MCF7 cells after 3 days by sulforhodamine B assay; format: functional, cell-based; details: for pIC50: MCF7, 72 h
Aspergillus niger = assay: Antifungal activity against Aspergillus niger after 3 days by broth microdilution method; format: functional; details: 72 h
KB = assay: Cytotoxicity against human KB cells after 3 days by sulforhodamine B assay; format: functional, cell-based; details: for pIC50: 72 h
Saccharomyces cerevisiae = assay: Antifungal activity against Saccharomyces cerevisiae after 3 days by broth microdilution method; format: functional; details: 72 h
SF-268 = assay: Cytotoxicity against human SF268 cells after 3 days by sulforhodamine B assay; format: functional, cell-based; details: for pIC50: SF-268, 72 h
[1] = tested on: Mycolicibacterium smegmatis; assay: Antibacterial activity against Mycobacterium smegmatis after 3 days by broth microdilution method; format: functional; details: 72 h

Row | SMILES | MIC (Micrococcus luteus) [µg/mL] | MIC (Aspergillus niger) [µg/mL] | MIC (Saccharomyces cerevisiae) [µg/mL] | MIC [1] [µg/mL] | pIC50 (NCI-H460) | pIC50 (MCF7) | pIC50 (KB) | pIC50 (SF-268) | Activity (NCI-H460) | Activity (MCF7) | Activity (KB) | Activity (SF-268)
1 | C=C1C[C@]2(C(=O)O)C[C@H]1CC[C@H]2[C@]1(C)CCC[C@@](C)(C(=O)OC)[C@H]1C(=O)O | 150 (≈ 396 µM) | 150 (≈ 396 µM) | 150 (≈ 396 µM) | 75 (≈ 198 µM) | < 5.00 | < 5.00 | < 5.00 | < 5.00 |  |  |  | 
2 | CCCCC#CC#CC#CCCCCCCCC(=O)O | 25 (≈ 91.8 µM) | 50 (≈ 184 µM) | 25 (≈ 91.8 µM) | 25 (≈ 91.8 µM) | 5.00 | 5.00 | 5.00 | 5.00 |  |  |  | 
3 | C[C@@H]1[C@H](O)[C@@H](C)/C=C/C=C/C=C/C=C/C=C/C=C/C=C/[C@H](O[C@@H]2O[C@H](C)[C@@H](O)[C@H](N)[C@@H]2O)C[C@@H]2O[C@](O)(C[C@@H](O)C[C@@H](O)[C@H](O)CC[C@@H](O)C[C@@H](O)CC(=O)O[C@H]1C)C[C@H](O)[C@H]2C(=O)O [AMPHOTERICIN B] |  | 25 (≈ 27.1 µM) | 25 (≈ 27.1 µM) |  |  |  |  |  |  |  |  | 
4 | CC1(C)S[C@@H]2[C@H](NC(=O)[C@H](N)c3ccccc3)C(=O)N2[C@H]1C(=O)O [AMPICILLIN] | 0.1 (≈ 0.286 µM) |  |  |  |  |  |  |  |  |  |  | 
5 | NC[C@H]1O[C@H](O[C@H]2[C@H](O)[C@@H](O[C@H]3O[C@H](CO)[C@@H](O)[C@H](N)[C@H]3O)[C@H](N)C[C@@H]2N)[C@H](O)[C@@H](O)[C@@H]1O [KANAMYCIN] |  |  |  | 0.2 (≈ 0.413 µM) |  |  |  |  |  |  |  | 
6 | O=C1c2ccccc2-c2c3c(cc4ccnc1c24)OCO3 [LIRIODENINE] | 6.3 (≈ 22.9 µM) | 25 (≈ 90.8 µM) | 12 (≈ 43.6 µM) | 12 (≈ 43.6 µM) | 5.30 | 5.30 | 5.30 | 5.30 |  |  |  | 
7 | C=C1C[C@]23C[C@H]1CC[C@H]2[C@]1(C)CCC[C@@]2(C)C(=O)O[C@@H](C3=O)[C@@H]12 [MITREKAURENONE] | 150 (≈ 477 µM) | 38 (≈ 121 µM) | 38 (≈ 121 µM) | 38 (≈ 121 µM) | < 5.00 | < 5.00 | < 5.00 | < 5.00 |  |  |  | 
8 | C=CCCC#CC#CC#CCCCCCC[C@@H]1C[C@@H](CO)OC1=O [OROPHEOLIDE] | 125 (≈ 383 µM) | 250 (≈ 766 µM) | 63 (≈ 193 µM) | 31 (≈ 95 µM) | 5.00 | 5.00 | 5.00 | 5.00 |  |  |  | 

Second part, led by results:

Row | MIC (Micrococcus luteus) [µg/mL] | MIC (Aspergillus niger) [µg/mL] | MIC (Saccharomyces cerevisiae) [µg/mL] | MIC [1] [µg/mL] | SMILES | pIC50 (NCI-H460) | pIC50 (MCF7) | pIC50 (KB) | pIC50 (SF-268) | Activity (NCI-H460) | Activity (MCF7) | Activity (KB) | Activity (SF-268)
9 | 50 (≈ 165 µM) | 100 (≈ 331 µM) | 50 (≈ 165 µM) | 50 (≈ 165 µM) | C=C1C[C@@]23CC[C@H]4[C@@](C)(CCC[C@]4(C)C(=O)O)[C@@H]2CC[C@@H]1C3 | < 5.00 | < 5.00 | < 5.00 | < 5.00 |  |  |  | 
10 | 50 (≈ 154 µM) | 12 (≈ 37 µM) | 12 (≈ 37 µM) | 12 (≈ 37 µM) | C=CCCC#CC#CC#C/C=C/CCCC[C@@H]1C[C@@H](CO)OC1=O | 5.00 | 5.00 | 5.00 | 5.00 |  |  |  | 
11 | 50 (≈ 176 µM) | 25 (≈ 87.9 µM) | 25 (≈ 87.9 µM) | 12 (≈ 42.2 µM) | C=CCCC#CC#CC#CCCCCCCCC(=O)OC [METHYLOROPHEATE] |  |  |  |  | inactive | inactive | inactive | inactive
12 | 94 (≈ 348 µM) | 188 (≈ 695 µM) | 47 (≈ 174 µM) | 94 (≈ 348 µM) | C=CCCC#CC#CC#CCCCCCCCC(=O)O [OROPHEIC ACID] | 5.00 | 5.00 | 5.00 | 5.00 |  |  |  | 

Source: ChEMBL document CHEMBL1153697, “Bioactive constituents of the stem bark of Mitrephora glabra” (J Nat Prod, 2009)
